Assay results: US20110178171A1, “COMPOUNDS FOR CANCER THERAPY” (China Medical University, priority 2010, published 2011)

How the values were obtained:
[1] = system: oral cancer cell line OECM-1; assay: MTT growth inhibition assay, OECM-1; assay type: cell-based; conditions: OECM-1, oral squamous cell carcinoma
Protocol: The results were determined by three independent experiments.
Besides, the above assay was also conducted on gastric cancer cell line NCI-N87, liver cancer cell line HepG2 and J5, lung cancer cell line A549, and oral cancer cell line OECM-1.

caspase-3 = assay: Caspase-3 activity for apoptosis detection (Caspase-Glo); assay type: cell-based, human; conditions: LNCaP cells, 24 h
Protocol: In General, drug can cause tumor apoptosis mediated activate caspase-3 leading to release fluoresce dye to detect by machine. Caspase-3 activity was measured using testis supernatants with the Caspase-Glo Assay System (Promega, Madison, Wis.) according to the manufacturer's instructions. Briefly, 50 μl of the Caspase-Glo buffer was added to 50 μl of tissue supernatants in a 96-well plate and incubated at room temperature for 60 minutes. Luminescence was measured using a Biotek synergy microplate reader (Biotek, Winooski, Vt.). Background activity levels, based on measurements in homogenization buffer only, were measured and subtracted from values in the testis tissue supernatants. All values were normalized to total protein content. Standard curves were used to determine the linearity of the responses.
Assays were carried out to examine whether K8 (Isochaihulactone) increases LNCaP cells caspase-3 activity which leads to tumor cell apoptosis. Briefly, LNCaP cells were treated with different concentrations of Z-K8 (0.25 to 4 μM) for 24 h. […] Thus, Z-K8 can be used in the treatment of prostate cancer.

LNCaP xenografts = assay: Antitumor activity in vivo, LNCaP xenograft; design: species or system mice
Protocol: Xenograft mice as a model system to study cytotoxicity effect of isochaihulactone in vivo: the implantation of cancer cells (LNCaP) were carried out similarly to previous reports. Female congenital athymic BALB/c nude (nu/nu) mice were purchased from National Sciences Council (Taipei, Taiwan) and all procedures were performed in compliance with the standard operating procedures of the Laboratory Animal Center of China Medical University (Taichung, Taiwan). All experiments were carried out using 6-8-week old mice weighing 18-22 g. The animals were s.c. implanted with 1×10^7 cell sinto the back of mice. When the tumor reached 80-120 mm3 in volume, animals were divided randomly into control and test groups consisting of six mice per group (day 0). Daily s.c. administration of z-K8, dissolved in a vehicle of 20% Tween 80 in normal saline (v/v) was performed from days 0 to 4 far from the inoculated tumor sites (>1.5 cm). The control group was treated with vehicle only. The mice were weighed three times a week up to days 21-28 to monitor the effects and the same time the tumor volume was determined by measurement of the length (L) and width (W) of the tumor. The tumor volume at day n (TVn) was calculated as TV (mm3)=(L×W^2)/2. The relative tumor volume at day n (RTVn) versus day 0 was expressed according to the following formula: RTVn=TVn/TV0. Tumor regression (T/C(%)) in treated versus control mice was calculated using: T/C(%)=(mean RTV of treated group)/(mean RTV of control group)×100. Xenograft tumors as well as other vital organs of treated and control. The results are shown in Tables 6 and 7 and FIGS. 6 and 7.
(§1) Assays were carried out to examine the inhibition of human xenografts growth in vivo by isochaihulactone. Briefly, LNCaP tumor-bearing mice were administered s.c. with vehicle control, 30 mg/kg E-K8, and Z-K8 respectively on days 0-4 for 5 days. The volumes of the tumors were measured. […] Scale bars, […]. Data represent means W S.D. of tumor volume at each time
as §1, with “Z-K8. Again,” for “isochaihulactone. Briefly,”, “Z-K8 15” for “30”, “mg/kg” for “mg/kg E-K8, and Z-K8 respectively”, “time point.” for “time”

PSA = assay: RT-PCR analysis of PSA expression; assay type: cell-based; conditions: human cancer cells, 0.5 μM to 2 μM, 24 h, dose-dependent (FIG. 3A)
Protocol: Total RNA from LNCaP, PC3, 3T3 cells was isolated as described above. cDNA was synthesized by reverse transcription of 2 μg of total RNA using oligo(dT)12-18 and SuperScript II RNA reverse transcriptase (Invitrogen). The cDNA was then used as the template to amplify the corresponding DNA fragments by PCR using two sets of synthetic oligonucleotide primers. DNA amplification was performed by PCR with the Thermocycler 2400 (PerkinElmer Life and Analytical Sciences, Boston, Mass.) using the following parameters: 35 cycles of denaturing at 95° C. for 1 min, annealing at 60° C. for 1 min, and extension at 72° C. for 2 min. Primers used for the AR PCR amplifications are (F): 5′-ATGGTGAGCAGAGTGCCCTA-3′ (SEQ ID NO: 1) (R): 5′-GTGGTGCTGGAAGCCTCTCCT-3′ (SEQ ID NO: 2) PSA (F) 5′-GGTGACCAAGTTCATGCTGTG-3′ (SEQ ID NO: 3) (R) 5′-GTGTCCTTGATCCACTTCCG-3′ (SEQ ID NO: 4) products were separated on 2% agarose gels, stained with ethidium bromide, and visualized using the Fluor Chem imaging system (Alpha InnoTech, San Leandro, Calif.), and levels of glyceraldehyde-3-phosphate dehydrogenase were used as the control.
RT-PCR was conducted to examine the effect of Z-K8 on several human cancer cells. Briefly, the cells were treated with Z-K8 (0.5 μM to 2 μM) or Luteolin (as a positive control) for 24 h. […]

[2] = 30 mg/kg s.c. days 0-4, day 1 after administration
[3] = 30 mg/kg s.c. days 0-4, day 4 after administration
[4] = 30 mg/kg s.c. days 0-4, day 7 after administration
[5] = 30 mg/kg s.c. days 0-4, day 10 after administration
[6] = 30 mg/kg s.c. days 0-4, day 13 after administration
[7] = 30 mg/kg s.c. days 0-4, day 16 after administration
[8] = 30 mg/kg s.c. days 0-4, day 19 after administration

COc1cc(/C=C2\C(=O)OCC2Cc2ccc3c(c2)OCO3)cc(OC)c1OC (racemic) [Z-K8, Racemic (Z)-β-(3′,4′-Methylenedioxybenzyl)-α-(3′,4′,5′-trimethoxybenzylidene)-γ-butyrolactone]
IC50 [1]: 1 µM | Caspase-3 Relative activity (caspase-3; 0.25 μM): 1.347 | Caspase-3 Relative activity (caspase-3; 0.5 μM): 1.274 | Caspase-3 Relative activity (caspase-3; 1 μM): 1.784 | Caspase-3 Relative activity (caspase-3; 2 μM): 2.399 | Caspase-3 Relative activity (caspase-3; 4 μM): 6.604 | Relative tumor volume (LNCaP xenografts; 15 mg/kg s.c. days 0-4, day 1 after administration): 1 | Relative tumor volume (LNCaP xenografts; 15 mg/kg s.c. days 0-4, day 4 after administration): 1.59 | Relative tumor volume (LNCaP xenografts; 15 mg/kg s.c. days 0-4, day 7 after administration): 1.91 | Relative tumor volume (LNCaP xenografts; 15 mg/kg s.c. days 0-4, day 10 after administration): 1.94 | Relative tumor volume (LNCaP xenografts; 15 mg/kg s.c. days 0-4, day 13 after administration): 2.13 | Relative tumor volume (LNCaP xenografts; 15 mg/kg s.c. days 0-4, day 16 after administration): 1.79 | Relative tumor volume (LNCaP xenografts; 15 mg/kg s.c. days 0-4, day 19 after administration): 2.00 | Relative tumor volume (LNCaP xenografts; 15 mg/kg s.c. days 0-4, day 21 after administration): 2.23 | Relative tumor volume (LNCaP xenografts; [2]): 1 | Tumor growth volume (mm^3) (LNCaP xenografts; [2]): 0 mm^3 | Relative tumor volume (LNCaP xenografts; [3]): 1.11 | Tumor growth volume (mm^3) (LNCaP xenografts; [3]): 0 mm^3 | Relative tumor volume (LNCaP xenografts; [4]): 1.12 | Tumor growth volume (mm^3) (LNCaP xenografts; [4]): 90 mm^3 | Relative tumor volume (LNCaP xenografts; [5]): 1.20 | Tumor growth volume (mm^3) (LNCaP xenografts; [5]): 202.5 mm^3 | Relative tumor volume (LNCaP xenografts; [6]): 1.23 | Tumor growth volume (mm^3) (LNCaP xenografts; [6]): 260 mm^3 | Relative tumor volume (LNCaP xenografts; [7]): 1.47 | Tumor growth volume (mm^3) (LNCaP xenografts; [7]): 255 mm^3 | Relative tumor volume (LNCaP xenografts; [8]): 1.23 | Tumor growth volume (mm^3) (LNCaP xenografts; [8]): 200 mm^3 | Relative tumor volume (LNCaP xenografts; 30 mg/kg s.c. days 0-4, day 21 after administration): 1.85 | Tumor growth volume (mm^3) (LNCaP xenografts; 30 mg/kg s.c. days 0-4, day 22 after administration): 225 mm^3 | Tumor growth volume (mm^3) (LNCaP xenografts; 30 mg/kg s.c. days 0-4, day 25 after administration): 375 mm^3 | Tumor growth volume (mm^3) (LNCaP xenografts; 30 mg/kg s.c. days 0-4, day 28 after administration): 435 mm^3 | Tumor growth volume (mm^3) (LNCaP xenografts; 30 mg/kg s.c. days 0-4, day 31 after administration): 633.5 mm^3 | tumor growth inhibition, in words (LNCaP xenografts; LNCaP tumor-bearing mice, 30 mg/kg s.c. days 0-4 (FIG. 6)): better tumor growth inhibition than E-form K8 | PSA expression (RT-PCR) (PSA): down regulated
